Reference: patent US10836792B2, “Retro-inverso peptide inhibitors of cell migration, extracellular matrix and endothelial invasion by tumor cells” (ISTITUTO NAZIONALE TUMORI IRCCS “FONDAZIONE G. PASCALE”, priority 2016, dated 2020)
Non-standard residues stand in square brackets, D forms with d. Residues, ends and D or L forms follow the SMILES beside them. Aib = CC(C)(N)C(=O)O

How the values were obtained:
FPR1 [1] = biological target: T1, FPR1 (Homo sapiens, UniProt P21462); assay: Competition with FITC-fMLF binding to RBL-2H3/ETFR cells stably expressing FPR1; conditions: 100 nM pre-incubation 60 min at 4° C., then 10 nM FITC-fMLF
T1 construct: expressed in transfected cells; host or cells: rat basophilic leukaemia RBL-2H3/ETFR cells
T1 sequence (P21462 1-350): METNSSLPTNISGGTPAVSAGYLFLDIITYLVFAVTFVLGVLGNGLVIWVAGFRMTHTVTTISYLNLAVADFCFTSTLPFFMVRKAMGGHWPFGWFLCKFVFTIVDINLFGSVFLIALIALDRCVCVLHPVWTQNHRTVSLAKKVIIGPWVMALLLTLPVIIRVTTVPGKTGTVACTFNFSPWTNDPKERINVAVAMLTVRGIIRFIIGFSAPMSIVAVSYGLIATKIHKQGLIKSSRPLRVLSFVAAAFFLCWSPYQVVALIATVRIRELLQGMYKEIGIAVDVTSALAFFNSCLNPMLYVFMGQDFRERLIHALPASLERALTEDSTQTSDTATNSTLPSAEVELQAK
Protocol: (§1) Cell-associated fluorescence was measured using a fluorescence plate reader. The results are depicted in FIG. 3. […] To evaluate the effect of RI-3 on agonist-dependent FPR1 internalization, binding experiments were performed at 37° C. and cells were visualized using a Zeiss 510 Meta LSM microscope. Original magnifications: 630×. Scale bar: 10 μm.

[2] = Stability in human serum, read out by HT1080 matrigel invasion in Boyden chambers; format: in vitro ADME; conditions: 10^−3 mol/L in serum 18 hrs at 37° C., then 10 nM, invasion 6 hrs
Protocol: FIG. 7 The retro-inverso peptide RI-3 is stable when pre-incubated in bovine (A) or human serum (B) as assessed in real time using the xCELLigence technology (A) or in Boyden chambers (B) (Example 7).
The stability of the retro-inverso peptide RI-3 in bovine and human serum was investigated through incubation of the peptide at a 10^−3 mol/L in serum for 18 hrs at 37° C. HT1080 cells were allowed to migrate toward DMEM (CTRL), 10% FBS (None), 10% FBS plus 10 nM RI-3 or 10% FBS with 10 nM RI-3 pre-incubated with bovine serum and the impedance values were automatically monitored in real time by the xCELLigence system for 18 hrs and expressed as cell index. Data represent the means from a quadruplicate experiment representative of 2 replicates. […] The stability of RI-3 in human serum was further investigated in cell invasion experiments performed in Boyden chambers. HT1080 cells were allowed to invade matrigel for 6 hrs, toward DMEM (CTRL), 10% FBS (None), 10% FBS plus 10 nM RI-3 or 10% FBS with 10 nM RI-3 pre-incubated with human serum. For quantitative analysis of cell invasion, the basal value assessed in the absence of FBS (CTRL) was taken as 100% and all values were reported relative to that. Data are the means±SD from a triplicate experiment. *Statistical significance was calculated against None with p<0.005. […]

chondrosarcoma Sarc = assay: Matrigel invasion (xCELLigence RTCA), Sarc; format: cell-based, human; conditions: 10 nM, 20 hrs
Protocol: FIG. 8 At the concentration of 10 nM the retro-inverso peptide RI-3 prevents matrigel invasion of tumor cells from human osteosarcoma Saos-2 (A), chondrosarcoma Sarc (B), melanoma A375 (C), metastatic melanoma A375M6 (D), ovarian carcinoma SKOV-3 cells (E), or primary ovarian cancer cells derived from a tumor excision (OV-53) (F), as monitored in real-time for 20 hr as changes in cell index by the xCELLigence RTCA system (Example 8).
To investigate the ability of RI-3 to prevents matrigel invasion of tumor cells form different tissue origins, human osteosarcoma Saos-2 (A), chondrosarcoma Sarc (B) melanoma A375 (C), metastatic melanoma A375M6 (D), ovarian carcinoma SKOV-3 cells (E) or primary ovarian cancer cells derived from a tumor excision (OV-53) (F) were seeded on polymerized matrigel and allowed to invade matrigel in the absence (None) or in the presence of 10 nM RI-3. Cell invasion was monitored in real-time for 20 hrs as changes in cell index by the xCELLigence RTCA system. Data represent mean±SD from quadruplicate experiments. All cell lines were able to cross matrigel, although to a different extent. In all case RI-3 reduced matrigel invasion by about 30%, 31%, 64%, 57%, 53% and 68%, of Saos-2, Sarc, A375, A375M6, SKOV-3 and OV-53 cells, respectively.

FPR1 [3] = biological target: T1, FPR1; assay: Agonist-dependent FPR1 internalization in RBL-2H3/ETFR cells (microscopy); format: cell-based; conditions: binding experiments at 37° C., FITC-fMLF
Protocol: as §1

HT1080 cells = assay: FBS-directed matrigel invasion of HT1080 cells (xCELLigence RTCA); format: cell-based, human
Source text: FIG. 5 Peptides RI-1, RI-2, RI-3, RI-4 and RI-5 reduced by 33%, 35%, 81%, 52% and 11%, respectively, the extent of FBS-directed matrigel invasion of HT1080 cells (A), as assessed in real time using the xCELLigence RTCA technology. The inhibitory effect of RI-3 is dose-dependent (B) (Example 5).
Cell migration is a prerequisite for cancer invasion. Therefore, we investigated whether retro-inverso peptides prevent matrigel invasion of HT1080 cells using the xCELLigence RTCA technology. Cells were seeded on polymerized matrigel and lower chambers were filled with DMEM (CTRL), growth medium (None) or growth medium with 10 nM the indicated peptides (A), or with increasing concentrations of RI-3 (B). Matrigel invasion was monitored in real time for 20 (A) or 18 (B) hrs at 37° C., 5% CO2 and the impedance values were automatically monitored as changes in cell index. Data represent means±SD from quadruplicate experiments, each representative of 2 replicates. HT1080 cells were able to cross matrigel in the presence of 10% FBS. All retro-inverso peptides caused a reduction of FBS-directed cell migration although to different extent.

In the case of `CC(=O)N[C@H](Cc1ccc(O)cc1)C(=O)N[C@H](CCCNC(=N)N)C(=O)NC(C)(C)C(=O)N[C@H](CCCNC(=N)N)C(N)=O` [RI-3, Ac-(D)-Tyr-(D)-Arg-Aib-(D)-Arg-NH2] (Ac-[dY][dR][Aib][dR]-NH2), the “inhibition of binding of fluorescent agonist (FITC-fMLF) to RBL-2H3/ETFR cells” value (FPR1 [1]) is reported as “to a similar extent as compared to fMLF”, the “inhibitory activity retained after pre-incubation with human serum” value [2] is reported as 81% and the “reduction of matrigel invasion” value (chondrosarcoma Sarc) is reported as ~31%. The “agonist-dependent FPR1 internalization” value (FPR1 [3]) was “prevented agonist-dependent FPR1 internalization”, the “reduction of the extent of FBS-directed cell invasion (matrigel)” value (HT1080 cells; 10 nM peptide, growth medium, 20 hrs) was 81% and the “dose dependence of the inhibition of matrigel invasion” value (HT1080 cells; increasing concentrations, 18 hrs) was “maximal effect being reached in the nanomolar range”.
